Laboratory results from US7049321B2, “Methods and pharmaceutical compositions for treatment of central and peripheral nervous system disorders and compounds useful therefor” (Israel Institute for Biological Research, priority 2002, dated 2006).
“Also recorded” adds a separate entry of the source.

Key:
[1] = test system: rat primary hippocampal cell cultures; experiment: APPs secretion in rat primary hippocampal cell cultures; format: cell-based; conditions: 100 μm; culture not given
naive rats = experiment: Social memory (olfactory recognition) in naive rats; format: in vivo, Wistar rats; conditions: 0.5, 1 and 5 mg/kg, p.o.
Method: 12 Male Wistar rats, 400–530 gr (4–5 months old) were used. Rats were housed individually 14 days before testing. Juvenile Wistar rats 40–50 gr (at arrival) were kept in groups of 6 and served as social stimuli for the adult rats. Animals were kept at 21° C.±1, with an inverse light-dark cycle (light on from 2:00 P.M. to 2:00 A.M.). The sessions were conducted 7 hr into the dark part of the light/dark cycle, under red illumination.
Adult rats were placed in a dim illumination room 1.5 h before the beginning of the social test. All juveniles were isolated in cages for 30 min prior to the beginning of the experiment. At the beginning of testing, an unfamiliar juvenile rat was placed in the home cage of an adult rat for 5 min. The time spent by the adult rat in investigating the juvenile rat was recorded. The adult rat was then immediately (1–2 min) treated with vehicle or test compound. Two hours later, the same juvenile was presented to the same adult rat for another 5 min period, a time when normally the stimulus juvenile is no longer identified (i.e., the adult rat investigates the juvenile for the same amount of time as during the first presentation). […]
Time spent in social investigation of stimulus juvenile rat was measured (in sec) and then expressed for each animal as the ratio of the second exposure to the first exposure (Ratio of Investigation Duration (RID)). […]

muscarinic receptor = experiment: [3H]OXO-M competition binding; conditions: rat cortex
Serotonin, 5HT3 = Serotonin, 5HT3 (Homo sapiens, UniProt P46098); experiment: Serotonin 5HT3 binding; conditions: at 10^−4 M
Chain of Serotonin, 5HT3 (P46098 24-478): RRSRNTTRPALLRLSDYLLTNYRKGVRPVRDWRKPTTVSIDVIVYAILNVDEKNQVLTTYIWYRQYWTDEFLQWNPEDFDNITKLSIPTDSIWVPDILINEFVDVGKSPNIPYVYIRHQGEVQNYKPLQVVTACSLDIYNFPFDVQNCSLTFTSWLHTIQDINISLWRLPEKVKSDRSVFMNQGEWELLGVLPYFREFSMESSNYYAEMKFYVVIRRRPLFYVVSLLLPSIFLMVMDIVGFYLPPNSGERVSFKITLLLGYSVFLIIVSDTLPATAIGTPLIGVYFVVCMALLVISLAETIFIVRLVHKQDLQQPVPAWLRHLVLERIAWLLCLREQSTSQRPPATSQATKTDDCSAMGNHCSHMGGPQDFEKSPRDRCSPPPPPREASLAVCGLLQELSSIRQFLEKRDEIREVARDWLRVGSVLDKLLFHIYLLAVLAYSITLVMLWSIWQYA

[2] = test system: adrenergic, benzodiazepine, dopamine, GABA, glutamate, glycine, histamine, nicotinic, serotonin sites, ChAT, GAD, MAO-A, MAO-B; experiment: Binding panel of other receptors and enzymes (AF267B)
[3] = Metabolic stability, rat liver microsomes; format: in vitro ADME; conditions: read-out: Metabolic Stability T1/2
Method: (§1) The metabolic stability of AF292 was evaluated by monitoring its disappearance while incubated with rat, […], monkey, and human hepatic microsomes. Testosterone, and propranolol were run as assay controls.

[4] = Metabolic stability, human liver microsomes; format: in vitro ADME; conditions: read-out: Metabolic Stability T1/2
Method: as §1

[5] = Chronic toxicity up to 13 weeks, rat; format: in vivo, Wistar rat
cyclin D1 = experiment: Cyclin D1 expression in rat hippocampal neurons; format: cell-based; conditions: against Aβ (5 μM)-induced decrease
Method: This study was performed in rat hippocampal primary cell cultures using the methods described by Garrido J L et al. (FASEB J 2002; 16:1982).

in vivo = conditions: rat
M2 mAChR = biological target: T1, M2 mAChR (Homo sapiens, UniProt P08172); experiment: Intracellular Ca increase in modified cell cultures, M2; format: cell-based; conditions: 10^−9–10^−3M
T1 construct: expressed in transfected cells; host or cells: 'modified cell cultures' giving a Ca increase; modification not described
T1 sequence (P08172 whole entry): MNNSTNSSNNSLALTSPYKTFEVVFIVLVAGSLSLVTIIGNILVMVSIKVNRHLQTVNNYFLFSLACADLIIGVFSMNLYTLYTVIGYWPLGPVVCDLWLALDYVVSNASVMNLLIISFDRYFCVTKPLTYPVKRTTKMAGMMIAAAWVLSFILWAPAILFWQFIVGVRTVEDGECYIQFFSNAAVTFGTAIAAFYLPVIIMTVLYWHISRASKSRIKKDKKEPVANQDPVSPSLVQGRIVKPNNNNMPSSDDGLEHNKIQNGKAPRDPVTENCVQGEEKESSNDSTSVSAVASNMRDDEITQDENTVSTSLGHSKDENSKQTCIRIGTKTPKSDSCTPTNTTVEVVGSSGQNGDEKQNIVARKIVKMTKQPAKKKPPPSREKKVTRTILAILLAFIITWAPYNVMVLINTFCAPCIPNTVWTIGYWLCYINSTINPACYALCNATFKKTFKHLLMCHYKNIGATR

M3 mAChR = biological target: T2, M3 mAChR (Homo sapiens, UniProt P20309); experiment: Arachidonic acid (AA) release, M3; format: cell-based
T2 construct: expressed in transfected cells
T2 sequence (P20309 whole entry): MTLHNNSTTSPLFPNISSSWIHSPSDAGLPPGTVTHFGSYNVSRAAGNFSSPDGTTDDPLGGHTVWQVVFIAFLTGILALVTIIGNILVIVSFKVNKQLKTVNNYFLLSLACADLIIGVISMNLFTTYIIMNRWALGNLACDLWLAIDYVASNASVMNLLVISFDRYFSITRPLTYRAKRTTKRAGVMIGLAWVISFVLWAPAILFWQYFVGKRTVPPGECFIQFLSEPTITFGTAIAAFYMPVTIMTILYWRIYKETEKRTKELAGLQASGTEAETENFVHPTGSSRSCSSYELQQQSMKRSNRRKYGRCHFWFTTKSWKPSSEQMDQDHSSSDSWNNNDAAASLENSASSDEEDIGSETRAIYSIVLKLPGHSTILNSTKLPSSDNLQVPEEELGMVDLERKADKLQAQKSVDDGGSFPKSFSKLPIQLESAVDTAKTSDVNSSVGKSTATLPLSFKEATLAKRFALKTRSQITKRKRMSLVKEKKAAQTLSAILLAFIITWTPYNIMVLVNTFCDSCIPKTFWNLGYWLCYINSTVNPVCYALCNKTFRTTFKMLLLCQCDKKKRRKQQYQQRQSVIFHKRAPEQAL

human M1 = biological target: T3, human M1 (Homo sapiens, UniProt P11229); experiment: Binding study, M1 (human); conditions: 10 μm
T3 sequence (P11229 1-460): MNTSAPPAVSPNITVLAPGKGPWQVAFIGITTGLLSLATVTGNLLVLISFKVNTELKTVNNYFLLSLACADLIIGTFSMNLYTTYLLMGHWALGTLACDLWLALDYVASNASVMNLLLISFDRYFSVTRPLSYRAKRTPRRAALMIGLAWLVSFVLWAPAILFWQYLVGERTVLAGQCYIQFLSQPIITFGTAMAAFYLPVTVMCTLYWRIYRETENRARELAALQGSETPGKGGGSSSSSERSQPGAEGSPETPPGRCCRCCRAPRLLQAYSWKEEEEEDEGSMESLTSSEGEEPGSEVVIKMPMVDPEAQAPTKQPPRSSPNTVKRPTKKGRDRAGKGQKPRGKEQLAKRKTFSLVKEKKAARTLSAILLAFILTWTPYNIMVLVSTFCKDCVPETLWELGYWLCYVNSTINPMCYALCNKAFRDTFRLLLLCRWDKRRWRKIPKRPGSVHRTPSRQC

For `CC1=NCC2(CCN(C)CC2)S1` [AF150(S), 2,8-Dimethyl-1-thia-3,8-diaza-spiro[4.5]dec-2-ene], the “APPs secretion, fold over control (agonists vs CCh)” value [1] was 2.8 fold and the “Investigation time of the same juvenile (RID)” value (naive rats) was “decreased the investigation time”.

In the case of `CC[C@@H]1SC2(CCN(C)CC2)NC1=O` [AF267B, (S)-2-ethyl-8-methyl-1-thia-4,8-diaza-spiro[4.5]decan-3-one], the “APPs secretion, fold over control (agonists vs CCh)” value [1] is reported as 2.8 fold, the Ki (muscarinic receptor) is reported as 1620 ± 340 nM and the inhibition at 100 µM (Serotonin, 5HT3) is reported as 51.3%. For the same compound, the Binding to panel [2] was “no binding at all”, the “Investigation time of the same juvenile (RID)” value (naive rats) was “decreased the investigation time” and the half-life [3] was 1.47 h. The half-life [4] was over 1.67 h, the “Dose at which effects are seen” value [5] was over 40 mg/kg and the “cyclin D1, increase vs. control” value (cyclin D1) was 50%. For the same compound, the Kp (in vivo; female, iv, 1 mg/kg) was 1.32, the Kp (in vivo; female, po, 2 mg/kg) was 1.25 and the Kp (in vivo; male, iv, 1 mg/kg) was 1.79. It also gave a Kp (in vivo; male, po, 2 mg/kg) of 2.43.

With `CC[C@@H]1SC2(CCNCC2)NC1=O` [AF292, (S)-2-Ethyl-1-thia-4,8-diaza-spiro[4.5]decan-3-one] the “Agonist activity at M2” value (M2 mAChR) was “inactive as an agonist; also recorded: M2 mAChR - no effects as agonist”, the “AA release, M3 mAChR, agonist activity” value (M3 mAChR) was “inactive as an agonist; also recorded: PI., AA: M3 mAChR: Not active as agonist” and the “Binding, %” value (human M1) was 55%. The half-life [3] was 1.53 h and the half-life [4] was over 1.67 h.
